According to PMC7583056, “Synthesis, Characterisation and In Vitro Anticancer Activity of Catalytically Active Indole-Based Half-Sandwich Complexes” (Molecules, 2020):
Like-named read-outs stand apart in the source and are kept apart here.

Assays:
[1] = pKa determination by UV-Vis spectroscopy at increasing pH; assay type: physicochemical; details: 6% acetonitrile/water v/v; for pKa: UV-Vis, aqua adduct, pH 7–12
Description: The pKa values for the complexes were measured by dissolving the compounds in 6% acetonitrile/water v/v (aqua adduct formed) and by recording the UV-Vis spectra of the samples at increasing pH (pH 7–12). pKa values of the complexes were calculated using Origin 2018 by plotting the absorbance at the corresponding wavelength against the pH and fitting it to the Boltzmann equation to obtain the inflection point. For complexes 2–4, the pKa values were calculated to be around 10 (Materials and Methods section and Table 1). The pKa of compound 1 could not be calculated, as the absorbance bands for the aqua- and the hydroxo- compounds overlap; however, changes could only be observed at pH values higher than 10. These pKa values are high, although such a decrease in acidity has been previously reported (generally attributed to an increased electron density on the metal centre). As a consequence of such high pKa, only the aqua adduct of the metal complexes is expected to be present at physiological pH (7.4), thus favouring the reaction between the metal complexes with possible ligands such as nucleobases or proteins.
Complexes 1–4 were dissolved in acetonitrile/H2O 6:94 v/v and UV-Vis spectra of the sample were recorded increasing the pH (pH 7–12). pKa vales of the complexes were calculated using Origin 2018 by plotting the absorbance against the pH.

[2] = system: A2780 cells; experiment: Chemosensitivity assay (MTT) in A2780 cells; assay type: cell-based; details: for Selectivity towards cancerous cells (A2780) versus normal cells (PNT2): from IC50 values A2780 vs PNT2
Excerpt: (§1) The antiproliferative activity of the ind-py ligand and of complexes 1–4 against ovarian cancer A2780 (cisplatin sensitive) and A2780cisR (cisplatin resistant) cell lines was studied. The IC50 values obtained for all the complexes are shown in Table 2, together with values for cisplatin, which was used as a positive control (untreated cells for 100% viability as negative control). […] One of the major limitations of existing anticancer drugs is their poor selectivity towards cancer cells. Comparing the response of the cancer cell lines to the normal PNT2 cells provides a preliminary indication towards the selectivity of the compounds.
(§2) In vitro chemosensitivity tests were performed against A2780, A2780cisR and PNT2 cells. Cells were routinely maintained as monolayer cultures in RPMI medium supplemented with 10% foetal calf serum, penicillin (100 I.U./mL) and streptomycin (100 μg/mL), sodium pyruvate (1 mM) and L-glutamine (2 mM). For chemosensitivity studies, cells were incubated in 96-well plates at a concentration of 7.5 × 10^3 cells per well and the plates were incubated for 24 h at 37 °C and a 5% CO2 humidified atmosphere prior to drug exposure.
(§3) Complexes were dissolved in DMSO to provide stock solutions, which were further diluted with media to provide a range of final concentrations. Drug-media solutions were added to cells (the final concentration of DMSO was less than 1% (v/v) in all cases) and incubated for 24 h at 37 °C and 5% CO2 humidified atmosphere. The drug-media was removed from the wells and the cells were washed with PBS (100 μL, twice), and 100 μL of complete fresh media were added to each well. The plates were further incubated for 48 h at 37 °C in a 5% CO2 humidified atmosphere to allow for a period of recovery. 3-(4,5-dimethylthiazol-2-yl)-2,5-diphenyltetrazolium bromide (MTT) (20 μL, 2.5 mg/mL) was added to each well and incubated for 2 h at 37 °C and 5% CO2 humidified atmosphere. All solutions were then removed and 100 μL of DMSO was added to each well in order to dissolve the purple formazan crystals. A Thermo Scientific Multiskan EX microplate photometer was used to measure the absorbance in each well at 570 nm. Cell survival was determined as the absorbance of treated cells divided by the absorbance of controls and expressed as a percentage. The IC50 values were determined from plots of % survival against drug concentration. Each experiment was repeated in triplicates of triplicates and a mean value was obtained and stated as IC50 (μM) ± SD. Cisplatin was also used as a positive control.

[3] = system: A2780cisR cells; experiment: Chemosensitivity assay (MTT) in A2780cisR cells; assay type: cell-based; details: for IC50: 24 h exposure + 48 h recovery, MTT, mean ± SD
Excerpt: as §1, §2, §3

[4] = system: PNT2 cells; experiment: Chemosensitivity assay (MTT) in PNT2 cells; assay type: cell-based; details: 24 h exposure + 48 h recovery, MTT; mean ± SD
Excerpt: as §1, §2, §3

[5] = Stability in d6-DMSO by 1H-NMR; assay type: physicochemical; details: 1.1 mM; for Release of the ind-py ligand (decoordination rate): over 24 h; for Release of the ind-py ligand (decoordination rate) / Time to reach equilibrium with second species (DMSO-adduct): 1H-NMR; for Stability in DMSO (in words): 24 h, after equilibrium with DMSO-adduct
Description: Owing to the limited aqueous solubility of the complexes, all the reactivity experiments were performed using a mixture MeOD/D2O (1:1 v/v) as a solvent. The stability of complexes 1–4 in MeOD/D2O was studied via ^1H-NMR spectroscopy over a period of 24 h. […] The stability of complexes 1–4 in dimethylsulfoxide (DMSO;1.1 mM) was also studied by ^1H-NMR spectroscopy over a period of 24 h (Figure S1). […] The ligand ind-py is also stable in MeOD/D2O over 24 h (Figure S1E).
Complexes 1–4 were also dissolved in d6-DMSO (1.1 mM) and ^1H-NMR spectra were recorded at t ≤ 10 min, 12 h and 24 h.

[6] = system: A2780 cells; experiment: Cell viability of A2780 cells, co-incubation with N-acetylcysteine (NAC); assay type: cell-based; details: complex at IC50 concentration, NAC 0, 2, 5 and 10 mM
Description: In order to determine whether ROS formation is a plausible explanation for the activity of these compounds, A2780 cells were treated at IC50 concentrations of 1–4 in combination with increasing concentrations of N-acetylcysteine (NAC; 0, 2, 5 and 10 mM; Figure 4). NAC is a known compound that can act as an ROS scavenger in cells and can be used to counteract the effects of complexes that affect ROS levels. […] However, this effect is not observed with the Os and Ru analogues.
Cells were incubated in 96-well plates at a concentration of 7.5 × 10^3 cells per well and the plates were incubated for 24 h at 37 °C and a 5% CO2 humidified atmosphere prior to drug exposure. Complexes were dissolved in DMSO to provide stock solutions, which were further diluted with media to working concentrations. Solution of N-acetylcysteine (NAC) or sodium formate in media were also prepared. Drug-media solutions and NAC or sodium formate solutions were added to cells (final concentrations as follows: IC50 values for the complex; 0, 2, 5 and 10 mM for NAC; 0, 0.5, 1 and 2 mM for sodium formate; DMSO concentration was less than 1% (v/v) in all cases) and incubated for 24 h at 37 °C in a 5% CO2 humidified atmosphere. After 24 h of incubation, the drug-media was removed from the wells and the cells were washed with PBS (100 μL, twice), and 100 μL of complete fresh media were added to each well. The plates were further incubated for 48 h at 37 °C in a 5% CO2 humidified atmosphere to allow for a period of recovery. 3-(4,5-dimethylthiazol-2-yl)-2,5-diphenyltetrazolium bromide (MTT) (20 μL, 2.5 mg/mL) was added to each well and incubated for 2 h at 37 °C and 5% CO2 humidified atmosphere. All solutions were then removed and 100 μL of DMSO was added to each well in order to dissolve the purple formazan crystals. A Thermo Scientific Multiskan EX microplate photometer was used to measure the absorbance in each well at 570 nm. Cell survival was determined as the absorbance of treated cells divided by the absorbance of controls and expressed as a percentage.

[7] = 24 h exposure + 48 h recovery, MTT, mean ± SD, read-out: IC50 A2780
[8] = A2780 and A2780cisR, read-out: IC50 values (in the range of)

SMILES: Cc1c(C)c(C)[c-](C)c1C.[Cl-].[Ir+3].c1ccc(-c2cc3ccccc3[n-]2)nc1 [complex 2, [Cp*Ir(ind-py)Cl]]
- pKa [1]: 9.59 ± 0.09 (λ = 300 nm)
- IC50 [2, 7]: 22 ± 2.5 µM
- IC50 relative to cisplatin (fold higher / less active) ([2]; A2780 and A2780cisR): 3 ×
- IC50 [2, 8]: ~20 µM
- IC50 [3]: 32.7 ± 1.7 µM
- IC50 [4]: 32.1 ± 3.9 µM
- Release of the ind-py ligand (decoordination rate) [5]: 25%
- Effect on cell viability in NAC-supplemented cells [6]: significant decrease of the cell viability

SMILES: Cc1ccc(C(C)C)cc1.[Cl-].[Ru+2].c1ccc(-c2cc3ccccc3[n-]2)nc1 [complex 3, [(p-cym)Ru(ind-py)Cl]]
- pKa [1]: 10.63 ± 0.03 (λ = 255 nm)
- IC50 [2, 7]: 47.3 ± 4.7 µM
- IC50 [3]: 62.8 ± 5.3 µM
- IC50 [4]: 54.3 ± 5.4 µM
- Time to reach equilibrium with second species (DMSO-adduct) [5]: less than 10 min
- Stability in DMSO (in words) [5]: stable
- Effect on cell viability in NAC-supplemented cells [6]: not observed

SMILES: Cc1ccc(C(C)C)cc1.[Cl-].[Os+2].c1ccc(-c2cc3ccccc3[n-]2)nc1 [complex 4, [(p-cym)Os(ind-py)Cl]]
- pKa [1]: 10.15 ± 0.04 (λ = 355 nm)
- IC50 [2, 7]: 18.8 ± 0.3 µM
- IC50 relative to cisplatin (fold higher / less active) ([2]; A2780 and A2780cisR): 3 ×
- IC50 [2, 8]: ~20 µM
- Selectivity towards cancerous cells (A2780) versus normal cells (PNT2) [2]: 2 ×
- IC50 [3]: 21.5 ± 1.3 µM
- Activity against A2780cisR compared with A2780 (cross-resistance) ([3]; comparison of IC50 values): no significant difference in activity
- IC50 [4]: 34.2 ± 2.2 µM
- Time to reach equilibrium with second species (DMSO-adduct) [5]: less than 10 min
- Stability in DMSO (in words) [5]: stable
- Effect on cell viability in NAC-supplemented cells [6]: not observed

SMILES: Cc1c(C)c(C)[c-](C)c1C.[Cl-].[Rh+3].c1ccc(-c2cc3ccccc3[n-]2)nc1 [complex 1, [Cp*Rh(ind-py)Cl]]
- pH above which changes in the UV-Vis spectra could be observed ([1]; pKa itself could not be calculated): higher than 10
- IC50 [2, 7]: 13 ± 1.7 µM
- IC50 relative to cisplatin (fold higher / less active) ([2]; A2780 and A2780cisR): 3 ×
- IC50 [2, 8]: ~20 µM
- Selectivity towards cancerous cells (A2780) versus normal cells (PNT2) [2]: 3 ×
- IC50 [3]: 21.5 ± 3.5 µM
- IC50 [4]: 34.7 ± 6.1 µM
- Release of the ind-py ligand (decoordination rate) [5]: 25%
- Effect on cell viability in NAC-supplemented cells [6]: significant decrease of the cell viability
